This passage reports TGI results from PubChem BioAssay (NCI).

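Protocol summary: plate cells (96-well), add compound at 5 concentrations, incubate 48 h, interpolate endpoints linearly. Definition used: TGI = concentration required for complete inhibition of growth.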

Among the test systems are 786-0 renal; ACHN renal; DU-145 prostate; HCC-2998 colon; HCT-15 colon; HT29 colon; MOLT-4 leukemia; NCI-H226 lung; OVCAR-8 ovarian; SF-268 CNS; SK-MEL-2 melanoma; SK-MEL-5 melanoma; TK-10 renal; U251 CNS; UO-31 renal; KM12 colon; NCI/ADR-RES ovarian; SF-295 CNS.
Test in all cases: inhibition of tumour cell growth, NCI panel, 48 h

For `COc1ccc(C2c3cn[nH]c3CC3CCCCC32)cc1` (stereo not drawn), the TGI in the experiment with 786-0 renal is 33.2 µM; in the experiment on ACHN renal, 33.1 µM; in the experiment with DU-145 prostate, 26.3 µM; with HCC-2998 colon it was 35 µM; with HCT-15 colon, 31.7 µM; with HT29 colon it was 41.4 µM. The TGI in the experiment on MOLT-4 leukemia was determined as 46.1 µM; in the experiment with NCI-H226 lung it was 36.9 µM; with OVCAR-8 ovarian, 35.6 µM; in the experiment on SF-268 CNS it was 39.6 µM; in the experiment with SK-MEL-2 melanoma, 32.5 µM; with SK-MEL-5 melanoma, 29.1 µM. In addition, the results for the TGI with TK-10 renal, in the experiment with U251 CNS and with UO-31 renal were 37.1 µM, 28.9 µM and 29.9 µM, respectively.

For `CC(NC(=O)Cc1ccccc1)NC(=O)C(C)C(=O)Nc1ccccc1` (stereo not drawn), the TGI in the experiment on 786-0 renal, in the experiment with ACHN renal, in the experiment on DU-145 prostate, in the experiment with HCT-15 colon, in the experiment on HT29 colon and in the experiment with KM12 colon was > 100 µM each time. For the same molecule, the TGI in the experiment with MOLT-4 leukemia is > 100 µM; in the experiment with NCI-H226 lung, 74.3 µM; in the experiment with NCI/ADR-RES ovarian it was > 100 µM; in the experiment with OVCAR-8 ovarian it was > 100 µM; in the experiment with SF-268 CNS, > 100 µM; in the experiment on SF-295 CNS, > 100 µM. In addition, the TGI in the experiment with SK-MEL-2 melanoma, with SK-MEL-5 melanoma, with TK-10 renal, in the experiment with U251 CNS and with UO-31 renal was > 100 µM throughout.

Regarding `O=C(O)CN1CCN2CCCCCN(CC1)CCN(CC(=O)O)CC2`, the TGI with 786-0 renal, in the experiment with ACHN renal, in the experiment with DU-145 prostate, in the experiment on HCT-15 colon, in the experiment on HT29 colon and in the experiment on KM12 colon was > 100 µM each time. The TGI in the experiment on NCI-H226 lung, in the experiment on NCI/ADR-RES ovarian, in the experiment with OVCAR-8 ovarian, in the experiment with SF-295 CNS, with SK-MEL-2 melanoma and in the experiment on SK-MEL-5 melanoma was > 100 µM throughout. Also, the TGI in the experiment with TK-10 renal, with U251 CNS and in the experiment on UO-31 renal was > 100 µM each time.

Consider `O=C(NCP(=O)(Oc1ccccc1)Oc1ccccc1)OCc1ccccc1`, for which the TGI in the experiment on 786-0 renal, with ACHN renal, in the experiment on HCT-15 colon, in the experiment with HT29 colon, in the experiment on KM12 colon and in the experiment on MOLT-4 leukemia was > 100 µM throughout. The TGI in the experiment on NCI-H226 lung, with NCI/ADR-RES ovarian, in the experiment with OVCAR-8 ovarian, in the experiment on SF-268 CNS, in the experiment with SF-295 CNS and with SK-MEL-2 melanoma was > 100 µM throughout. The TGI in the experiment with SK-MEL-5 melanoma, in the experiment with TK-10 renal, in the experiment with U251 CNS and with UO-31 renal was > 100 µM throughout.

Turning to `Cc1nn(-c2ccccc2)c2c1C(c1cc3ccccc3nc1Cl)NC(=O)N2` (stereo not drawn), the TGI with 786-0 renal is 35.2 µM; in the experiment on ACHN renal, 35.8 µM; in the experiment on DU-145 prostate, > 100 µM; in the experiment with HCT-15 colon it was 48.1 µM; in the experiment on HT29 colon, 35.4 µM; in the experiment on KM12 colon it was 53.1 µM. Moreover, the TGI in the experiment on NCI-H226 lung was 60.1 µM; in the experiment on NCI/ADR-RES ovarian it was > 100 µM; in the experiment with OVCAR-8 ovarian, 47.4 µM; in the experiment on SF-268 CNS, > 100 µM; with SF-295 CNS it was 55.8 µM; in the experiment on SK-MEL-2 melanoma it was 29.5 µM. The TGI in the experiment on SK-MEL-5 melanoma is 31.3 µM; with TK-10 renal it was > 100 µM; with U251 CNS, 38.2 µM; in the experiment on UO-31 renal, 28.2 µM.

Turning to `O=C(O)CN1CCNCCN(CC(=O)O)CCN(CC(=O)O)CCNCC1`, the TGI with 786-0 renal, in the experiment on ACHN renal, with DU-145 prostate, in the experiment on HCT-15 colon, with HT29 colon and in the experiment with KM12 colon was > 100 µM each time. The TGI with MOLT-4 leukemia, with NCI-H226 lung, in the experiment on NCI/ADR-RES ovarian, in the experiment on OVCAR-8 ovarian, in the experiment with SF-295 CNS and in the experiment with SK-MEL-2 melanoma was > 100 µM in each case. Also, the TGI in the experiment with SK-MEL-5 melanoma, with TK-10 renal, in the experiment with U251 CNS and with UO-31 renal was > 100 µM throughout.

With `C=C1CC(C#N)(C#N)[C@H]2C3CCCC3C[C@@H]12` (stereo partly drawn) (tested in a mixture with another compound), the TGI was 36.9 µM in the experiment with 786-0 renal; 61.1 µM in the experiment on ACHN renal; > 100 µM with DU-145 prostate; 32.8 µM in the experiment on HCT-15 colon; 28.1 µM in the experiment with HT29 colon; 43.3 µM in the experiment with KM12 colon. Besides, the TGI in the experiment on MOLT-4 leukemia is 43.5 µM; in the experiment on NCI-H226 lung, 61.9 µM; in the experiment on NCI/ADR-RES ovarian, 48.2 µM; in the experiment with OVCAR-8 ovarian, 33 µM; in the experiment on SF-268 CNS, 61.1 µM; in the experiment with SF-295 CNS, 39.4 µM. The TGI with SK-MEL-5 melanoma was > 100 µM; in the experiment on TK-10 renal, > 100 µM; in the experiment with U251 CNS it was 40.4 µM; with UO-31 renal it was 35.3 µM.

In the case of `CC(O)CNC(=O)C(C)Oc1ccc(OCC2CCCCC2)cc1` (stereo not drawn), the TGI in the experiment on 786-0 renal, in the experiment with ACHN renal, in the experiment with HCC-2998 colon, in the experiment with HCT-15 colon, with HT29 colon and in the experiment with KM12 colon was > 100 µM throughout. For the same molecule, the TGI in the experiment with MOLT-4 leukemia, in the experiment with NCI-H226 lung, with OVCAR-8 ovarian, in the experiment with SF-268 CNS, in the experiment on SF-295 CNS and in the experiment on SK-MEL-2 melanoma was > 100 µM in each case. Also, the TGI in the experiment on SK-MEL-5 melanoma, with TK-10 renal, in the experiment on U251 CNS and in the experiment on UO-31 renal was > 100 µM throughout.

Take `CCCCCC#CCOC(=O)C(=[N+]=[N-])P(=O)(c1ccccc1)c1ccccc1`: the TGI in the experiment with 786-0 renal, in the experiment on ACHN renal, in the experiment on DU-145 prostate, in the experiment on HCC-2998 colon, with HCT-15 colon and in the experiment with HT29 colon was > 10 µM throughout. The TGI in the experiment with KM12 colon, in the experiment with MOLT-4 leukemia, with NCI-H226 lung, in the experiment on OVCAR-8 ovarian, in the experiment on SF-268 CNS and in the experiment with SF-295 CNS was > 10 µM each time. Besides, the TGI in the experiment on SK-MEL-5 melanoma, with TK-10 renal, with U251 CNS and with UO-31 renal was > 10 µM each time.
